Reference: the supplement of paper PMC10307832

Legend:
Assay in all cases: relative viability (nuclei count vs DMSO), 5 days (fraction); higher = more cells survive
NCI-H1650 = test system: NCI-H1650
Summary of the method: (§1)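 Nuclei were stained with Hoechst during a one-step fixation (final 0.05% Triton X-100, 1% formaldehyde, 1 ug/ml Hoechst) carried out 5 days after dosing, then counted on 4× images. The cells, lung cancer lines in 1536-well plates, had been dosed by pin tool the day after seeding with one drug alone or a fixed anchor-drug dose plus five library-drug doses (not always all listed) in √10 steps. Relative viability is the nuclei count in treated wells divided by that in vehicle wells, and each value is the median of duplicate plates.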

LCLC-97TM1 = test system: LCLC-97TM1
Summary of the method: as §1

NCI-H647 = test system: NCI-H647
Summary of the method: as §1

NCI-H2405 = test system: NCI-H2405
Summary of the method: as §1

NCI-H3122 = test system: NCI-H3122
Summary of the method: as §1

HCC-827 = test system: HCC-827
Summary of the method: as §1

RERF-LC-KJ = test system: RERF-LC-KJ
Summary of the method: as §1

201T = test system: 201T
Summary of the method: as §1

SK-LU-1 = test system: SK-LU-1
Summary of the method: as §1

NCI-H2228 = test system: NCI-H2228
Summary of the method: as §1

NCI-H1355 = test system: NCI-H1355
Summary of the method: as §1

BEN = test system: BEN
Summary of the method: as §1

HCC-44 = test system: HCC-44
Summary of the method: as §1

NCI-H1793 = test system: NCI-H1793
Summary of the method: as §1

NCI-H1437 = test system: NCI-H1437
Summary of the method: as §1

NCI-H322M = test system: NCI-H322M
Summary of the method: as §1

CAL-12T = test system: CAL-12T
Summary of the method: as §1

NCI-H2087 = test system: NCI-H2087
Summary of the method: as §1

LXF-289 = test system: LXF-289
Summary of the method: as §1

NCI-H2023 = test system: NCI-H2023
Summary of the method: as §1

NCI-H727 = test system: NCI-H727
Summary of the method: as §1

LCLC-103H = test system: LCLC-103H
Summary of the method: as §1

NCI-H1395 = test system: NCI-H1395
Summary of the method: as §1

HOP-62 = test system: HOP-62
Summary of the method: as §1

SMILES: C[C@@H]1CN(CC(=O)Nc2ccc3c(c2)Cc2cccc(-c4cc(=O)cc(N5CCOCC5)o4)c2S3)C[C@H](C)O1 + COc1cccc2cc(-c3nc([C@H]4CC[C@H](C(=O)O)CC4)n4ncnc(N)c34)[nH]c12 [OSI-027] (partner 0.5 µM)
- relative viability (NCI-H1650; first compound 0.04 µM): 0.761
- relative viability (NCI-H1650; first compound 0.1265 µM): 0.662
- relative viability (NCI-H1650; first compound 0.4 µM): 0.591
- relative viability (NCI-H1650; first compound 4 µM): 0.449
- relative viability (LCLC-97TM1; first compound 0.04 µM): 0.45
- relative viability (LCLC-97TM1; first compound 0.1265 µM): 0.601
- relative viability (LCLC-97TM1; first compound 0.4 µM): 0.408
- relative viability (LCLC-97TM1; first compound 4 µM): 0.509
- relative viability (NCI-H647; first compound 0.04 µM): 0.519
- relative viability (NCI-H647; first compound 0.1265 µM): 0.669
- relative viability (NCI-H647; first compound 0.4 µM): 0.497
- relative viability (NCI-H647; first compound 4 µM): 0.558
- relative viability (NCI-H2405; first compound 0.04 µM): 0.632
- relative viability (NCI-H2405; first compound 0.1265 µM): 0.699
- relative viability (NCI-H2405; first compound 0.4 µM): 0.528
- relative viability (NCI-H2405; first compound 4 µM): 0.615
- relative viability (NCI-H3122; first compound 0.04 µM): 0.994
- relative viability (NCI-H3122; first compound 0.1265 µM): 0.901
- relative viability (NCI-H3122; first compound 0.4 µM): 0.206
- relative viability (NCI-H3122; first compound 4 µM): 0.668
- relative viability (HCC-827; first compound 0.04 µM): 0.775
- relative viability (HCC-827; first compound 0.1265 µM): 0.738
- relative viability (HCC-827; first compound 0.4 µM): 0.509
- relative viability (HCC-827; first compound 4 µM): 0.746
- relative viability (RERF-LC-KJ; first compound 0.04 µM): 0.757
- relative viability (RERF-LC-KJ; first compound 0.1265 µM): 0.583
- relative viability (RERF-LC-KJ; first compound 0.4 µM): 0.534
- relative viability (RERF-LC-KJ; first compound 4 µM): 0.49
- relative viability (201T; first compound 0.04 µM): 0.784
- relative viability (201T; first compound 0.1265 µM): 0.68
- relative viability (201T; first compound 0.4 µM): 0.683
- relative viability (201T; first compound 4 µM): 0.757
- relative viability (SK-LU-1; first compound 0.04 µM): 0.393
- relative viability (SK-LU-1; first compound 0.1265 µM): 0.4
- relative viability (SK-LU-1; first compound 0.4 µM): 0.386
- relative viability (SK-LU-1; first compound 4 µM): 0.237
- relative viability (NCI-H2228; first compound 0.04 µM): 0.659
- relative viability (NCI-H2228; first compound 0.1265 µM): 0.705
- relative viability (NCI-H2228; first compound 0.4 µM): 0.483
- relative viability (NCI-H2228; first compound 4 µM): 0.335
- relative viability (NCI-H1355; first compound 0.04 µM): 0.447
- relative viability (NCI-H1355; first compound 0.1265 µM): 0.472
- relative viability (NCI-H1355; first compound 0.4 µM): 0.321
- relative viability (NCI-H1355; first compound 4 µM): 0.335
- relative viability (BEN; first compound 0.04 µM): 0.288
- relative viability (BEN; first compound 0.1265 µM): 0.28
- relative viability (BEN; first compound 0.4 µM): 0.305
- relative viability (BEN; first compound 4 µM): 0.296
- relative viability (HCC-44; first compound 0.04 µM): 0.328
- relative viability (HCC-44; first compound 0.1265 µM): 0.707
- relative viability (HCC-44; first compound 0.4 µM): 0.335
- relative viability (HCC-44; first compound 4 µM): 0.305
- relative viability (NCI-H1793; first compound 0.04 µM): 0.256
- relative viability (NCI-H1793; first compound 0.1265 µM): 0.272
- relative viability (NCI-H1793; first compound 0.4 µM): 0.247
- relative viability (NCI-H1793; first compound 4 µM): 0.149
- relative viability (NCI-H1437; first compound 0.04 µM): 0.918
- relative viability (NCI-H1437; first compound 0.1265 µM): 0.881
- relative viability (NCI-H1437; first compound 0.4 µM): 0.864
- relative viability (NCI-H1437; first compound 4 µM): 0.747
- relative viability (NCI-H322M; first compound 0.04 µM): 0.485
- relative viability (NCI-H322M; first compound 0.1265 µM): 0.643
- relative viability (NCI-H322M; first compound 0.4 µM): 0.5
- relative viability (NCI-H322M; first compound 4 µM): 0.493
- relative viability (CAL-12T; first compound 0.04 µM): 0.734
- relative viability (CAL-12T; first compound 0.1265 µM): 0.675
- relative viability (CAL-12T; first compound 0.4 µM): 0.561
- relative viability (CAL-12T; first compound 4 µM): 0.237
- relative viability (NCI-H2087; first compound 0.04 µM): 0.847
- relative viability (NCI-H2087; first compound 0.1265 µM): 0.521
- relative viability (NCI-H2087; first compound 0.4 µM): 0.463
- relative viability (NCI-H2087; first compound 4 µM): 0.457
- relative viability (LXF-289; first compound 0.04 µM): 0.779
- relative viability (LXF-289; first compound 0.1265 µM): 0.829
- relative viability (LXF-289; first compound 0.4 µM): 0.86
- relative viability (LXF-289; first compound 4 µM): 0.777
- relative viability (NCI-H2023; first compound 0.04 µM): 0.518
- relative viability (NCI-H2023; first compound 0.1265 µM): 0.387
- relative viability (NCI-H2023; first compound 0.4 µM): 0.306
- relative viability (NCI-H2023; first compound 4 µM): 0.197
- relative viability (NCI-H727; first compound 0.04 µM): 0.546
- relative viability (NCI-H727; first compound 0.1265 µM): 0.485
- relative viability (NCI-H727; first compound 0.4 µM): 0.537
- relative viability (NCI-H727; first compound 4 µM): 0.656
- relative viability (LCLC-103H; first compound 0.04 µM): 0.405
- relative viability (LCLC-103H; first compound 0.1265 µM): 0.379
- relative viability (LCLC-103H; first compound 0.4 µM): 0.387
- relative viability (LCLC-103H; first compound 4 µM): 0.476
- relative viability (NCI-H1395; first compound 0.04 µM): 0.782
- relative viability (NCI-H1395; first compound 0.1265 µM): 0.655
- relative viability (NCI-H1395; first compound 0.4 µM): 0.539
- relative viability (NCI-H1395; first compound 4 µM): 0.612
- relative viability (HOP-62; first compound 0.04 µM): 0.828
- relative viability (HOP-62; first compound 0.1265 µM): 0.797
- relative viability (HOP-62; first compound 0.4 µM): 0.763
- relative viability (HOP-62; first compound 4 µM): 0.881
